Assay results reported in the supplement of paper PMC10011410.
± gives the standard deviation of the averaged measurements.

What follows are molecules tested on U-2 OS (assay: cell viability (CellTiter-Glo) relative to DMSO (% of control); higher = more viable). Settings: 20 µM; 24 h.
Outline: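 In white low-volume 384-well plates, 750 U-2 OS cells per well were treated by pin tool after 24 h, most compounds at 20, 10 and 5 μM with 0.4% DMSO, and incubated for 24 h at 37 °C. Total glutathione and GSSG, or viability, were then read by luminescence using GSH/GSSG-Glo or CellTiter-Glo on separate plates. Values, corrected for background and row/column position, are given relative to vehicle or as a GSH:GSSG ratio.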

`Cc1cc(-c2ccccc2)cc(C(=O)NNS(=O)(=O)c2ccccc2)c1F` and `O=C(NNS(=O)(=O)c1ccccc1F)c1cc(F)cc(-c2ccccn2)c1` are within error of each other in cell viability: 98.9 ± 2.5 for the first, 97.2 ± 4.7 for the second.

Same assay, conditions: 40 µM; 24 h

Going from `Cl.Cl.O=C(O)Cn1nnc(-c2ccc(CN(CCCCOc3ccc(CN4CCCC4)cc3)CCc3ccccc3)cc2)n1` to `Oc1cccc(O)c1O`, the cell viability falls from 88.9 ± 11 to 0.221 ± 0.03.

Molecule `Cc1cc2c(C(C)C)c(O)c(O)c(C=O)c2c(O)c1-c1c(C)cc2c(C(C)C)c(O)c(O)c(C=O)c2c1O` has a cell viability of 42.7 ± 11.

Same assay, conditions: 80 µM; 24 h

Going from `Cl.Cl.O=C(O)Cn1nnc(-c2ccc(CN(CCCCOc3ccc(CN4CCCC4)cc3)CCc3ccccc3)cc2)n1` to `Oc1cccc(O)c1O`, the cell viability falls from 30.9 ± 15 to 0.263 ± 0.059.

`Cc1cc2c(C(C)C)c(O)c(O)c(C=O)c2c(O)c1-c1c(C)cc2c(C(C)C)c(O)c(O)c(C=O)c2c1O` was tested, and the cell viability was 5.12 ± 1.6.

What follows are molecules tested on U-2 OS (assay: cell painting activity score (Mahalanobis distance from DMSO wells); higher = stronger morphological phenotype). Settings: 0.625 µM; 24 h.
Outline: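 Images taken on an Opera Phenix of U-2 OS cells stained with MitoTracker, concanavalin A, phalloidin, wheat germ agglutinin, Hoechst and SYTO 14 were processed in CellProfiler, with features normalized to DMSO cells on the same plate. The cells, about 1,500 per well in 384-well plates, had been treated by pin tool for 24 h at 37 °C, usually at six 2-fold concentrations from 20 μM to 625 nM. The activity score measures Mahalanobis distance from DMSO wells, and cell count is expressed relative to DMSO wells. Each value averages four replicate plates.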

First: Cl.Cl.O=C(O)Cn1nnc(-c2ccc(CN(CCCCOc3ccc(CN4CCCC4)cc3)CCc3ccccc3)cc2)n1
Second: Cn1c(=O)n(-c2ccc(C(C)(C)C#N)cc2)c2c3cc(-c4cnc5ccccc5c4)ccc3ncc21
The “cell painting activity score” value of the first is lower: 4.83 for the first, 11.8 for the second.

Going from `COC[C@H]1OC(=O)c2coc3c2[C@@]1(C)C1=C(C3=O)[C@@H]2CCC(=O)[C@@]2(C)C[C@H]1OC(C)=O` to `O=C(NNS(=O)(=O)c1ccccc1F)c1cc(F)cc(-c2ccccn2)c1`, the “cell painting activity score” value falls from 7.82 ± 1.2 to 4.25.

Compared with `Oc1cccc(O)c1O`, `O=S1(=O)CCc2ccccc21` is higher in “cell painting activity score” value: 3.4 for the first, 4.91 for the second.

Compared with `c1ccc(-c2noc(NC3CCCC3)n2)cc1`, `Cc1cc(-c2ccccc2)cc(C(=O)NNS(=O)(=O)c2ccccc2)c1F` is higher in “cell painting activity score” value: 2.72 for the first, 6.33 for the second.

First: CCOc1cc2ncc(C#N)c(Nc3ccc(OCc4ccccn4)c(Cl)c3)c2cc1NC(=O)/C=C/CN(C)C
Second: Cc1cc2c(C(C)C)c(O)c(O)c(C=O)c2c(O)c1-c1c(C)cc2c(C(C)C)c(O)c(O)c(C=O)c2c1O
The “cell painting activity score” value of the first is higher: 6.66 for the first, 3.83 for the second.

Same assay, conditions: 1.25 µM; 24 h

Going from `Cl.Cl.O=C(O)Cn1nnc(-c2ccc(CN(CCCCOc3ccc(CN4CCCC4)cc3)CCc3ccccc3)cc2)n1` to `Cn1c(=O)n(-c2ccc(C(C)(C)C#N)cc2)c2c3cc(-c4cnc5ccccc5c4)ccc3ncc21`, the “cell painting activity score” value rises from 5.3 to 12.3.

Compared with `COC[C@H]1OC(=O)c2coc3c2[C@@]1(C)C1=C(C3=O)[C@@H]2CCC(=O)[C@@]2(C)C[C@H]1OC(C)=O`, `O=C(NNS(=O)(=O)c1ccccc1F)c1cc(F)cc(-c2ccccn2)c1` is lower in “cell painting activity score” value: 8.77 ± 1.2 for the first, 5.31 for the second.

Going from `Oc1cccc(O)c1O` to `O=S1(=O)CCc2ccccc21`, the “cell painting activity score” value falls from 4.83 to 3.74.

First: c1ccc(-c2noc(NC3CCCC3)n2)cc1
Second: Cc1cc(-c2ccccc2)cc(C(=O)NNS(=O)(=O)c2ccccc2)c1F
The “cell painting activity score” value of the first is lower: 2.85 for the first, 7.18 for the second.

Going from `CCOc1cc2ncc(C#N)c(Nc3ccc(OCc4ccccn4)c(Cl)c3)c2cc1NC(=O)/C=C/CN(C)C` to `Cc1cc2c(C(C)C)c(O)c(O)c(C=O)c2c(O)c1-c1c(C)cc2c(C(C)C)c(O)c(O)c(C=O)c2c1O`, the “cell painting activity score” value falls from 11.4 to 4.24.

Same assay, conditions: 2.5 µM; 24 h

Going from `Cl.Cl.O=C(O)Cn1nnc(-c2ccc(CN(CCCCOc3ccc(CN4CCCC4)cc3)CCc3ccccc3)cc2)n1` to `Cn1c(=O)n(-c2ccc(C(C)(C)C#N)cc2)c2c3cc(-c4cnc5ccccc5c4)ccc3ncc21`, the “cell painting activity score” value rises from 7.08 to 12.8.

Going from `COC[C@H]1OC(=O)c2coc3c2[C@@]1(C)C1=C(C3=O)[C@@H]2CCC(=O)[C@@]2(C)C[C@H]1OC(C)=O` to `O=C(NNS(=O)(=O)c1ccccc1F)c1cc(F)cc(-c2ccccn2)c1`, the “cell painting activity score” value falls from 8.96 ± 1.1 to 5.99.

Compared with `Oc1cccc(O)c1O`, `O=S1(=O)CCc2ccccc21` is higher in “cell painting activity score” value: 3.93 for the first, 4.94 for the second.

First: c1ccc(-c2noc(NC3CCCC3)n2)cc1
Second: Cc1cc(-c2ccccc2)cc(C(=O)NNS(=O)(=O)c2ccccc2)c1F
The “cell painting activity score” value of the first is lower: 2.97 for the first, 6.97 for the second.

Going from `CCOc1cc2ncc(C#N)c(Nc3ccc(OCc4ccccn4)c(Cl)c3)c2cc1NC(=O)/C=C/CN(C)C` to `Cc1cc2c(C(C)C)c(O)c(O)c(C=O)c2c(O)c1-c1c(C)cc2c(C(C)C)c(O)c(O)c(C=O)c2c1O`, the “cell painting activity score” value falls from 14.6 to 4.3.

Same assay, conditions: 5 µM; 24 h

Compared with `Cl.Cl.O=C(O)Cn1nnc(-c2ccc(CN(CCCCOc3ccc(CN4CCCC4)cc3)CCc3ccccc3)cc2)n1`, `Cn1c(=O)n(-c2ccc(C(C)(C)C#N)cc2)c2c3cc(-c4cnc5ccccc5c4)ccc3ncc21` is higher in “cell painting activity score” value: 6.29 for the first, 12.8 for the second.

`COC[C@H]1OC(=O)c2coc3c2[C@@]1(C)C1=C(C3=O)[C@@H]2CCC(=O)[C@@]2(C)C[C@H]1OC(C)=O` and `O=C(NNS(=O)(=O)c1ccccc1F)c1cc(F)cc(-c2ccccn2)c1` are within error of each other in “cell painting activity score” value: 9.66 ± 1 for the first, 9.11 for the second.

First: Oc1cccc(O)c1O
Second: O=S1(=O)CCc2ccccc21
The “cell painting activity score” value of the first is lower: 3.87 for the first, 4.01 for the second.

First: c1ccc(-c2noc(NC3CCCC3)n2)cc1
Second: Cc1cc(-c2ccccc2)cc(C(=O)NNS(=O)(=O)c2ccccc2)c1F
The “cell painting activity score” value of the first is lower: 3.02 for the first, 6.92 for the second.

First: CCOc1cc2ncc(C#N)c(Nc3ccc(OCc4ccccn4)c(Cl)c3)c2cc1NC(=O)/C=C/CN(C)C
Second: Cc1cc2c(C(C)C)c(O)c(O)c(C=O)c2c(O)c1-c1c(C)cc2c(C(C)C)c(O)c(O)c(C=O)c2c1O
The “cell painting activity score” value of the first is higher: 10.9 for the first, 5.05 for the second.

Same assay, conditions: 10 µM; 24 h

First: Cl.Cl.O=C(O)Cn1nnc(-c2ccc(CN(CCCCOc3ccc(CN4CCCC4)cc3)CCc3ccccc3)cc2)n1
Second: Cn1c(=O)n(-c2ccc(C(C)(C)C#N)cc2)c2c3cc(-c4cnc5ccccc5c4)ccc3ncc21
The “cell painting activity score” value of the first is lower: 6.41 for the first, 12.6 for the second.

`COC[C@H]1OC(=O)c2coc3c2[C@@]1(C)C1=C(C3=O)[C@@H]2CCC(=O)[C@@]2(C)C[C@H]1OC(C)=O` and `O=C(NNS(=O)(=O)c1ccccc1F)c1cc(F)cc(-c2ccccn2)c1` are within error of each other in “cell painting activity score” value: 10.4 ± 0.73 for the first, 10.5 for the second.

First: Oc1cccc(O)c1O
Second: O=S1(=O)CCc2ccccc21
The “cell painting activity score” value of the first is higher: 5.49 for the first, 4.61 for the second.

Going from `c1ccc(-c2noc(NC3CCCC3)n2)cc1` to `Cc1cc(-c2ccccc2)cc(C(=O)NNS(=O)(=O)c2ccccc2)c1F`, the “cell painting activity score” value rises from 2.62 to 8.27.

Going from `CCOc1cc2ncc(C#N)c(Nc3ccc(OCc4ccccn4)c(Cl)c3)c2cc1NC(=O)/C=C/CN(C)C` to `Cc1cc2c(C(C)C)c(O)c(O)c(C=O)c2c(O)c1-c1c(C)cc2c(C(C)C)c(O)c(O)c(C=O)c2c1O`, the “cell painting activity score” value rises from 9.93 to 15.5.

Same assay, conditions: 20 µM; 24 h

Going from `Cl.Cl.O=C(O)Cn1nnc(-c2ccc(CN(CCCCOc3ccc(CN4CCCC4)cc3)CCc3ccccc3)cc2)n1` to `Cn1c(=O)n(-c2ccc(C(C)(C)C#N)cc2)c2c3cc(-c4cnc5ccccc5c4)ccc3ncc21`, the “cell painting activity score” value rises from 11.1 to 12.8.

Going from `COC[C@H]1OC(=O)c2coc3c2[C@@]1(C)C1=C(C3=O)[C@@H]2CCC(=O)[C@@]2(C)C[C@H]1OC(C)=O` to `O=C(NNS(=O)(=O)c1ccccc1F)c1cc(F)cc(-c2ccccn2)c1`, the “cell painting activity score” value falls from 11.2 ± 0.66 to 9.4.

First: Oc1cccc(O)c1O
Second: O=S1(=O)CCc2ccccc21
The “cell painting activity score” value of the first is lower: 5.54 for the first, 6.81 for the second.

First: c1ccc(-c2noc(NC3CCCC3)n2)cc1
Second: Cc1cc(-c2ccccc2)cc(C(=O)NNS(=O)(=O)c2ccccc2)c1F
The “cell painting activity score” value of the first is lower: 3.1 for the first, 8.87 for the second.

Compared with `CCOc1cc2ncc(C#N)c(Nc3ccc(OCc4ccccn4)c(Cl)c3)c2cc1NC(=O)/C=C/CN(C)C`, `Cc1cc2c(C(C)C)c(O)c(O)c(C=O)c2c(O)c1-c1c(C)cc2c(C(C)C)c(O)c(O)c(C=O)c2c1O` is higher in “cell painting activity score” value: 13.4 for the first, 17.8 for the second.
